Data from patent publication US20240228502A1, “2-PHENYLAMINO PYRROLOPYRIMIDINES AS ACK1 INHIBITORS” (H. LEE MOFFITT CANCER CENTER AND RESEARCH INSTITUTE, INC., priority 2021, published 2024).

What was measured:
ACK1 [1] = molecular target: T1, ACK1 (Homo sapiens, UniProt Q07912); experiment: ACK1 inhibition (ACK1 IC50); assay type: biochemical
UKE1 = experiment: Cell viability, UKE1; assay type: cell-based
MDA-MB-231 = experiment: Cell viability, MDA-MB-231; assay type: cell-based
ACK1 [2] = molecular target: T1, ACK1; experiment: DSF = Differential Scanning Fluorimetry, thermal shift; assay type: binding
[3] = Homo sapiens, MDA-MB-231, MDA-MB-231

T1 sequence (Q07912 whole entry): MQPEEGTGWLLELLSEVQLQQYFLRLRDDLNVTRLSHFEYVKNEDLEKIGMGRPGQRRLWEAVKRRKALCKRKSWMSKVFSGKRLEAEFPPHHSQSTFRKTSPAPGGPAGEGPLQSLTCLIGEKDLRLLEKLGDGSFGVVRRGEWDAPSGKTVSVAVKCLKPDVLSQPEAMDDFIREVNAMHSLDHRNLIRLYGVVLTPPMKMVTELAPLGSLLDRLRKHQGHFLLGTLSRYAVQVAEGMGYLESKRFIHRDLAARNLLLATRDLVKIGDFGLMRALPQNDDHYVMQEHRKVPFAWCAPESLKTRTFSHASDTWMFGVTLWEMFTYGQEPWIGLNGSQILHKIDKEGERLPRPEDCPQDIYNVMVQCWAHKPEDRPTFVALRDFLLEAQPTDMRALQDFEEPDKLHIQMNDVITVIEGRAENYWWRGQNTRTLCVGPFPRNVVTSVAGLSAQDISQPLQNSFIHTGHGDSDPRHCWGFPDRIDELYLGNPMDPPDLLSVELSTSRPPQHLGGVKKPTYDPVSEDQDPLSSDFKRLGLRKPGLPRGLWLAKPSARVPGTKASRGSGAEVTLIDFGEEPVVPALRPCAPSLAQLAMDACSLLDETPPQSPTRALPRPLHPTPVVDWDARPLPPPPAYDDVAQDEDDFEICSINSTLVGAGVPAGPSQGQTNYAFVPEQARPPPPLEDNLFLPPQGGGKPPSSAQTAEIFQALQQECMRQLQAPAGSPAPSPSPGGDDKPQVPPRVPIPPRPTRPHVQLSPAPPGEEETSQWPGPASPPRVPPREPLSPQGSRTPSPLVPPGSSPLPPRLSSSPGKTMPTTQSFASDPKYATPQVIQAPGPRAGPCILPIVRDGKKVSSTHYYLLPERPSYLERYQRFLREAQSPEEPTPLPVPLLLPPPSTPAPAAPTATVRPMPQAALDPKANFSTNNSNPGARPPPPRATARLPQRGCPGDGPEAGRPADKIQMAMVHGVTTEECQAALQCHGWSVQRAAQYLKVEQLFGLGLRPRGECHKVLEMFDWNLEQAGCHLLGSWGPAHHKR

Compound | IC50 (ACK1 [1]) [nM] | DSF (ΔTm (° C.)) (ACK1 [2]) [°C] | further results
CN1CCN(c2ccc(Nc3ncc4ccn(CC5CCOCC5)c4n3)cc2)CC1 | < 250 |  | 
CN1CCN(c2cccc(Nc3ncc4ccn(CC5CCOCC5)c4n3)c2)CC1 | < 500 |  | 
COc1cc(N2CCN(C)CC2)ccc1Nc1ncc2ccn(CC3CCOCC3)c2n1 | < 250 |  | 
Cc1cn(CC2CCCO2)c2nc(Nc3ccc(N4CCN(C)CC4)cc3)ncc12 (stereo not shown) | < 250 |  | 
CN1CCN(c2ccc(Nc3ncc4ccn(CC5CCCO5)c4n3)cc2)CC1 (stereo not shown) | < 250 |  | 
CN1CCN(c2cccc(Nc3ncc4ccn(CC5CCCO5)c4n3)c2)CC1 (stereo not shown) | < 250 |  | 
COc1cc(N2CCN(C)CC2)ccc1Nc1ncc2ccn(CC3CCCO3)c2n1 (stereo not shown) | < 250 |  | 
COc1cc(N2CCN(C)CC2)ccc1Nc1ncc2c(F)cn(CC3CCCO3)c2n1 (stereo not shown) | < 250 |  | 
CC(C)Oc1cc(Nc2ncc3c(F)cn(CC4CCCO4)c3n2)ccc1C1CCN(C)CC1 (stereo not shown) | < 250 |  | 
CC(C)Oc1cc(Nc2ncc3ccn(CC4CCOCC4)c3n2)ccc1N1CCN(C)CC1 | < 250 |  | EC50 (UKE1; UKE1, UKE1): 3100 nM; EC50 (MDA-MB-231; [3]): 3500 nM
CN1CCN(c2ccc(Nc3ncc4ccn(CC5CCOCC5)c4n3)c(OC3CCC3)c2)CC1 | < 250 |  | 
Cn1cc(-c2ccc(Nc3ncc4ccn(CC5CCOCC5)c4n3)cc2)cn1 | < 250 |  | 
CC(C)Oc1cc(Nc2ncc3ccn(CC4CCCO4)c3n2)ccc1N1CCN(C)CC1 (stereo not shown) | < 250 |  | EC50 (UKE1; UKE1, UKE1): 1100 nM; EC50 (MDA-MB-231; [3]): 2000 nM
CN1CCN(c2ccc(Nc3ncc4ccn(CC5CCCO5)c4n3)c(OC3CCC3)c2)CC1 (stereo not shown) | < 250 |  | 
Cn1cc(-c2ccc(Nc3ncc4ccn(CC5CCCO5)c4n3)cc2)cn1 (stereo not shown) | < 250 |  | 
COc1cc(Nc2ncc3ccn(CC4CCCO4)c3n2)ccc1-c1cnn(C)c1 (stereo not shown) | < 250 |  | 
Cc1cn(CC2CCCO2)c2nc(Nc3ccc(N4CCN(C)CC4)c(OC(C)C)c3)ncc12 (stereo not shown) | < 250 |  | 
Cc1cn(CC2CCCO2)c2nc(Nc3ccc(-c4cnn(C)c4)c(OC(C)C)c3)ncc12 (stereo not shown) | < 500 | 2.1 | 
Cc1cn(CC2CCOCC2)c2nc(Nc3ccc(N4CCN(C)CC4)c(OC(C)C)c3)ncc12 | < 250 |  | 
Cc1cn(CC2CCOCC2)c2nc(Nc3ccc(-c4cnn(C)c4)c(OC(C)C)c3)ncc12 | < 250 |  | 
COc1cc(Nc2ncc3c(C)cn(CC4CCOCC4)c3n2)ccc1-c1cnn(C)c1 | < 250 |  | 
CN1CCN(c2ccc(Nc3ncc4ccn(CC5CCCO5)c4n3)cc2OCCO)CC1 (stereo not shown) | < 250 | 5.3 | EC50 (UKE1; UKE1): 710 nM; EC50 (UKE1; UKE1, UKE1): 1280 nM; EC50 (MDA-MB-231; [3]): 720 nM; EC50 (MDA-MB-231; MDA-MB-231): 1280 nM

Compound | IC50 (ACK1 [1]) [nM] | DSF (ΔTm (° C.)) (ACK1 [2]) [°C] | further results
CC(C)COc1cc(Nc2ncc3ccn(CC4CCCO4)c3n2)ccc1N1CCN(C)CC1 (stereo not shown) | < 250 |  | 
CN1CCN(c2ccc(Nc3ncc4ccn(CC5CCCO5)c4n3)cc2OC2CCCC2)CC1 (stereo not shown) | < 250 |  | EC50 (UKE1; UKE1, UKE1): 2100 nM; EC50 (MDA-MB-231; [3]): 2100 nM; EC50 (MDA-MB-231; MDA-MB-231): 1050 nM
CN1CCN(c2ccc(Nc3ncc4ccn(CC5CCCO5)c4n3)cc2OC2CCC2)CC1 (stereo not shown) | < 250 |  | EC50 (UKE1; UKE1): 1500 nM; EC50 (UKE1; UKE1, UKE1): 1720 nM; EC50 (MDA-MB-231; [3]): 1500 nM; EC50 (MDA-MB-231; MDA-MB-231): 1710 nM
CC(C)Oc1cc(Nc2ncc3ccn(CCc4ccccc4)c3n2)ccc1N1CCN(C)CC1 | < 250 | 4.5 | EC50 (UKE1; UKE1, UKE1): 1800 nM; EC50 (MDA-MB-231; [3]): 3420 nM
CC(C)Oc1cc(Nc2ncc3ccn(CCc4ccccc4)c3n2)ccc1-c1cnn(C)c1 | < 750 |  | 
CC(C)Oc1cc(Nc2ncc3ccn(-c4cccc(NS(=O)(=O)C(C)C)c4)c3n2)ccc1N1CCN(C)CC1 | < 250 | 5.2 | EC50 (UKE1; UKE1, UKE1): 310 nM; EC50 (MDA-MB-231; [3]): 164 nM
COc1cc(Nc2ncc3ccn(-c4cccc(NS(=O)(=O)C(C)C)c4)c3n2)ccc1N1CCN(C)CC1 | < 250 | 6.4 | EC50 (UKE1; UKE1, UKE1): 110 nM; EC50 (MDA-MB-231; [3]): 231 nM
CC(C)S(=O)(=O)Nc1cccc(-n2ccc3cnc(Nc4ccc(N5CCN(C)CC5)c(OCCO)c4)nc32)c1 | < 250 | 6.4 | EC50 (UKE1; UKE1, UKE1): 390 nM; EC50 (MDA-MB-231; [3]): 151 nM
CC(C)Oc1cc(Nc2ncc3ccn(-c4cccc(NS(=O)(=O)C(C)C)c4)c3n2)ccc1-c1cnn(C)c1 | < 250 |  | 
COc1cc(Nc2ncc3ccn(-c4cccc(NS(=O)(=O)C(C)C)c4)c3n2)ccc1-c1cnn(C)c1 | < 250 |  | 
COc1cc(N2CCN(C)CC2)c(F)cc1Nc1ncc2ccn(C[C@H]3CCCO3)c2n1 | < 250 |  | 
COc1cc(N2CCN(C)CC2)c(F)cc1Nc1ncc2ccn(CC3CCOCC3)c2n1 | < 250 |  | EC50 (UKE1; UKE1, UKE1): > 10000 nM; EC50 (MDA-MB-231; [3]): > 10000 nM
COc1cc(N2CCN(C)CC2)c(F)cc1Nc1ncc2ccn(-c3cccc(NS(=O)(=O)C(C)C)c3)c2n1 | < 250 | 4.8 | EC50 (UKE1; UKE1, UKE1): 940 nM; EC50 (MDA-MB-231; [3]): 1580 nM
CC(C)Oc1cc(Nc2ncc3ccn(C[C@H]4CCCO4)c3n2)ccc1N1CCN(C)CC1 | < 250 | 5.3 | EC50 (UKE1; UKE1, UKE1): 1000 nM; EC50 (MDA-MB-231; [3]): 1100 nM
CN1CCN(c2ccc(Nc3ncc4ccn(C[C@H]5CCCO5)c4n3)cc2F)CC1 | < 250 |  | 
COc1cc(N2CCN(C)CC2)c(F)cc1Nc1ncc2ccn(CC3CCCO3)c2n1 (stereo not shown) | < 250 |  | 
COc1cc(N2CCN(C)CC2)c(F)cc1Nc1ncc2ccn(CCc3ccccc3)c2n1 | < 250 |  | 
CC(C)Oc1cc(N2CCN(C)CC2)ccc1Nc1ncc2ccn(CCc3ccccc3)c2n1 | < 1000 |  | 
COc1cc(N2CCN(C)CC2)c(F)cc1Nc1ncc2ccn(CCc3ccc(F)cc3)c2n1 | < 250 |  | 
COc1ccccc1CCn1ccc2cnc(Nc3cc(F)c(N4CCN(C)CC4)cc3OC)nc21 | < 250 |  | 
COc1cc(N2CCN(C)CC2)c(F)cc1Nc1ncc2ccn(CCc3ccccc3Cl)c2n1 | < 250 |  | 
COc1cc(N2CCN(C)CC2)c(F)cc1Nc1ncc2ccn(-c3cccc(N4CCCS4(=O)=O)c3)c2n1 | < 250 |  | 

Compound | IC50 (ACK1 [1]) [nM] | DSF (ΔTm (° C.)) (ACK1 [2]) [°C] | further results
CN1CCN(c2ccc(Nc3ncc4ccn(-c5cccc(N6CCCS6(=O)=O)c5)c4n3)cc2F)CC1 | < 250 |  | EC50 (UKE1; UKE1, UKE1): 55 nM; EC50 (MDA-MB-231; [3]): 840 nM
CN1CCN(c2ccc(Nc3ncc4ccn(CC5CCOCC5)c4n3)cc2F)CC1 | < 250 |  | 
CC(C)S(=O)(=O)Nc1cccc(-n2ccc3cnc(Nc4cc(F)c(N5CCN(C)CC5)cc4Cl)nc32)c1 | < 250 |  | 
CN1CCN(c2cc(Cl)c(Nc3ncc4ccn(CC5CCCO5)c4n3)cc2F)CC1 (stereo not shown) | < 250 |  | 
CN1CCN(c2cc(Cl)c(Nc3ncc4ccn(CC5CCOCC5)c4n3)cc2F)CC1 | < 250 | 6.4 | 
COc1cc(N2CCN(C)CC2)c(F)cc1Nc1ncc2ccn(-c3cccc(N4CCCCS4(=O)=O)c3)c2n1 | < 250 |  | EC50 (UKE1; UKE1, UKE1): 1300 nM; EC50 (MDA-MB-231; [3]): 3400 nM
CN1CCN(c2cc(Cl)c(Nc3ncc4ccn(-c5cccc(N6CCCCS6(=O)=O)c5)c4n3)cc2F)CC1 | < 250 |  | 
COc1cc(N2CCN(C)CC2)ccc1Nc1ncc2ccn(-c3cccc(NS(=O)(=O)C(C)C)c3)c2n1 | < 250 | 7.6 | EC50 (UKE1; UKE1, UKE1): 2700 nM; EC50 (MDA-MB-231; [3]): 5150 nM
COc1c(Nc2ncc3ccn(-c4ccc(NS(=O)(=O)C(C)C)cc4)c3n2)cc(F)c(N2CCN(C)CC2)c1F | < 250 |  | 
COc1c(Nc2ncc3ccn(CC4CCOCC4)c3n2)cc(F)c(N2CCN(C)CC2)c1F | > 1000 |  | 
Cc1cc(N2CCN(C)CC2)c(F)cc1Nc1ncc2ccn(-c3cccc(N4CCCCS4(=O)=O)c3)c2n1 |  | 6.2 | 
CC(C)S(=O)(=O)Nc1ccc(-n2ccc3cnc(Nc4ccc(N5CCN(C)CC5)c(OCCO)c4)nc32)cc1 |  | 5.3 | 
COc1cc(N2CCN(C)CC2)c(F)cc1Nc1ncc2ccn(-c3ccc(NS(=O)(=O)C(C)C)cc3)c2n1 |  | 9.3 | 
CC(C)S(=O)(=O)Nc1ccc(-n2ccc3cnc(Nc4ccc(N5CCN(C)CC5)c(F)c4)nc32)cc1 |  | 6.1 | 
COc1cc(N2CCN(C)CC2)ccc1Nc1ncc2ccn(-c3ccc(NS(=O)(=O)C(C)C)cc3)c2n1 |  | 6.5 | 
Cc1cc(N2CCN(C)CC2)c(F)cc1Nc1ncc2ccn(-c3ccc(NS(=O)(=O)C(C)C)cc3)c2n1 |  | 7.3 | 
COc1cc(N2CCN(C)CC2)c(F)cc1Nc1ncc2ccn(-c3ccc(S(=O)(=O)NC(C)C)cc3)c2n1 |  | 4.4 | 
COc1cc(N2CCN(C)CC2)ccc1Nc1ncc2ccn(-c3ccc(S(=O)(=O)NC(C)C)cc3)c2n1 |  | 8.1 | 
Cc1cc(N2CCN(C)CC2)c(F)cc1Nc1ncc2ccn(-c3ccc(S(=O)(=O)NC(C)C)cc3)c2n1 |  | 7.7 | 
CN1CCN(c2ccc(Nc3ncc4ccn(-c5ccc(N6CCCS6(=O)=O)cc5)c4n3)cc2F)CC1 |  | 5.6 | 
